Legend:
[1] = tested on: MLL-AF9 transformed murine bone marrow cells; test: Proliferation of MLL-AF9 transformed murine bone marrow cells; type: cell-based; settings: FIG. 2
Kasumi-1 = test: Apoptosis in control cell line Kasumi-1 without MLL translocation; type: cell-based; settings: Kasumi-1 control cell line without MLL translocation; FIG. 8B
MLL leukemia cells = test: Cell cycle arrest in MLL leukemia cells; type: cell-based; settings: different MLL leukemia cells; FIG. 9
[2] = tested on: MLL-ENL transformed murine bone marrow cells; test: Proliferation of MLL-ENL transformed murine bone marrow cells; type: cell-based; settings: FIG. 2
ML-2 = test: Apoptosis in human MLL leukemia cell line ML-2; type: cell-based; settings: FIG. 8A
[3] = tested on: MLL-AF9 transformed murine bone marrow cells; test: Colony forming assay in MLL-AF9 transformed murine bone marrow cells; type: cell-based; settings: FIG. 10
MV4;11 [4] = test: Apoptosis in human MLL leukemia cell line MV4;11; type: cell-based; settings: FIG. 8A
[5] = tested on: MLL-AF9 transformed murine bone marrow cells; test: Differentiation of MLL-AF9 transformed murine bone marrow cells; type: cell-based; settings: for differentiation as assessed by increased expression of the CD11b differentiation marker: FIG. 4; for differentiation as assessed by significant change in morphology: FIG. 5
Hoxa9 and Meis1 = test: Expression level of Hoxa9 and Meis1 in MLL-AF9 transformed bone marrow cells; type: cell-based, murine; settings: FIG. 1B
MV4;11 [6] = test: Differentiation of human MLL leukemia cell line MV4;11; type: cell-based; settings: FIG. 6, FIG. 7
MI-2 = test: Differentiation of human MLL leukemia cell line MI-2; type: cell-based; settings: FIG. 7
MonoMac-6 = test: Differentiation of human MLL leukemia cell line MonoMac-6; type: cell-based; settings: FIG. 7
KOPN8 = test: Differentiation of human MLL leukemia cell line KOPN8; type: cell-based; settings: FIG. 7

Row | Compound | inhibition of proliferation [1] | apoptosis (Kasumi-1) | cell cycle arrest (MLL leukemia cells) | inhibition of proliferation [2] | apoptosis (ML-2) | transforming properties of MLL-AF9 fusion protein (colony number, morphology of colonies) [3] | apoptosis (MV4;11 [4]) | differentiation as assessed by increased expression of the CD11b differentiation marker [5] | differentiation as assessed by significant change in morphology [5] | expression level of Hoxa9 and Meis1 (Hoxa9 and Meis1) | differentiation (CD11b expression and morphology change) (MV4;11 [6]) | differentiation (change in the CD11b expression and change in morphology of cells) (MI-2) | differentiation (change in the CD11b expression and change in morphology of cells) (MonoMac-6) | differentiation (change in the CD11b expression and change in morphology of cells) (KOPN8)
1 | N#Cc1ccc(OCCCN2CCC(C(O)c3ccccc3)CC2)cc1 (stereo not shown) [B76 (NC)] | No such effect | No effect on apoptosis | No such effect | No such effect | but not the control compound (NC) induce apoptosis | but not NC reduce transforming properties | but not the control compound (NC) induce apoptosis |  |  |  |  |  |  | 
2 | N#Cc1ccc(OCCCN2CCC([C@](O)(c3ccccc3)C3CCCC3)CC2)cc1 [Compound B19] |  | No effect on apoptosis | induce cell cycle arrest |  | induce apoptosis | reduce transforming properties | induce apoptosis | induces differentiation | induces differentiation | strongly downregulates | induce differentiation | induce differentiation | induce differentiation | induce differentiation
3 | N#Cc1ccc(OCCCN2CCC([C@@](O)(c3ccccc3)C3CCCC3)CC2)cc1 [Compound B20] |  | No effect on apoptosis | induce cell cycle arrest |  | induce apoptosis | reduce transforming properties | induce apoptosis | induces differentiation | induces differentiation | strongly downregulates | induce differentiation | induce differentiation | induce differentiation | induce differentiation

From patent US9212180B2 (priority 2013, dated 2015)
